# According to US9322034B2, “Compositions and methods for detecting and modulating cell death by a translation regulated gene expression system” (Wayne State University, priority 2007, dated 2016):
# Columns and labels:
# [1] = system: HEK293 cells transduced with rBAC TRplp-EYFP / TRdm-EYFP; experiment: TR-EYFP translation after rBAC transduction; type: cell-based, human; settings: 5 μM, 24 hr
# Method: This example is to show delivery of the TRplp-EYFP and TRdm-EYFP cassettes to HEK293 cells using rBAC transduction. HEK293 cells are plated on flame sterilized glass slides and grown until 60-70% confluent (1-2 days), washed with serum-free DMEM, and infected with rBAC for 1-2 hr. The medium is replaced with DMEM, 10% FBS and the cells incubated for 24 hours. Infected cells were treated with DMEM, 10% FBS supplemented with 5 μM calcium ionophore A23187 for 24 hr prior to direct microscopic examination.
# [2] = system: HEK293 TRplp-EYFP and TRplp-fLUC colonies; experiment: Microplate reader screen at fixed time and toxin concentration; type: cell-based, human; settings: 12 hr
# Method: For this example, HEK293 cells expressing the TRplp-EYFP, TRdm-EYFP, TRplp fLUC and TRdm-fLUC expression cassettes are evaluated using a microplate reader. To quantitate the TR translational response, 24,000 cells are plated in a 96-well microtiter plates and allowed to grow for about 40 hr to achieve the proper cell density prior to incubation with a toxic agent. Each well is cultured with complete DMEM medium containing either no toxin or a defined concentration of toxin and incubated at 37 C for specific time periods. At that time, fluorescence or chemiluminescence on a FLUOstar Optima (BMG Labtech) microplate reader is used measure TR-ORF response.
# Direct detection of the spontaneously fluorescent EYFP protein fluorophore is achieved by excitation of samples in black optical bottom 96-well trays with a fluorescein filter (545 nm) or a YFP filter (YFPex) and emission measured at 590 nm or 544 nm using gains of 1000-2000. To reduce the background fluorescence associated with media components, the trays are centrifuged at 1200 rpm, RT for 3 min to collect any floating cells, and the media replaced with 200 microliters of 1×PBS prior to detection. For the fLUC protein, protein activity is quantified by luminescence produced during live cell or lysed cell luciferase assays. […] Luminescence was detected using lens filter at gains of 2000-3000. […]
structure (smiles),measurement,setting,value
CNc1ccc2oc(C[C@H]3O[C@@]4(CC[C@H]3C)O[C@H]([C@H](C)C(=O)c3ccc[nH]3)[C@H](C)C[C@H]4C)nc2c1C(=O)O [calcium ionophore A23187],translation of EYFP in rBAC transduced cells compared to uninfected control cells,[1],exhibit selective translation of the fluorescent EYFP protein
same,TR response in screening assay,"[2]; HEK293 TRplp-EYFP subclone #41, 6.7 micromolar",significant TR responses
same,TR response in screening assay,"[2]; HEK293 TRplp-fLUC subclone #3, 6.7 micromolar, live cell assay",significant TR responses
